The values below are quoted from earlier work in patent US11576379B2, “Antimicrobial composition comprising alkylated polyvinylpyrrolidone polymer” (The Procter & Gamble Company, priority 2019, dated 2023).

With `CC(=O)O.CC(=O)O.NC(=N\CCCCCC/N=C(N)/N=C(\N)Nc1ccc(Cl)cc1)/N=C(\N)Nc1ccc(Cl)cc1` [Chlorhexidine diaceate, Chlorhexidine diacetate], the Solubility in water was about 1%.
